In the supplement of paper PMC11208160:

Experiment: recombinant UMI read abundance after kanamycin selection (control-corrected) (log10(CPM+1)); higher = more efficient recombination; extreme values may be limits of the assay; sequences stand for … in AGTGCAGAGAAAATCGGCCAGTTTTCTCTGCCTGCAGTCCGCATGCCGTGGGACCCCTTGGGTTCTAACCTGTTGCCTAGATTTATGCAGCGGACTGCCTTTCTCCCAAAGTGATAAACCGG…AGGTTGGTTTCACT; site = the 11-nt donor
In short: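 Values, expressed as log10(CPM+1), derive from recombinant UMI counts converted to CPM, averaged across replicates and scaled by control-derived factors. Plating was with IPTG (0.07 mM) plus kanamycin or unselected, two replicates each. The screen pooled donor and donor-binding-loop pairs for the IS621 bridge recombinase in Escherichia coli.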
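Further: IS621 bridge recombinase in Escherichia coli cells against a fixed T5 target plasmid.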

Sequence	recombinant UMI read abundance (log10)
TGGACCTCATGGACCGGTTTTCCCGGTAATCCGTATTTGAG (site TGGACCTCTCT)	0.96
TGGATCACATGGACCGGTTTTCCCGGTAATCCGTATTTGCT (site TGGATCACTAG)	1.72
TGGCAACCATGGACCGGTTTTCCCGGTAATCCGTATTTGCT (site TGGCAACCTAG)	0
TGGCAAGCATGGACCGGTTTTCCCGGTAATCCGTATTTGGC (site TGGCAAGCTGC)	0.585
TGGCATACATGGACCGGTTTTCCCGGTAATCCGTATTTGTA (site TGGCATACTTA)	0.751
TGGCCGGCATGGACCGGTTTTCCCGGTAATCCGTATTTGGA (site TGGCCGGCTAC)	0.0385
TGGCCGGCATGGACCGGTTTTCCCGGTAATCCGTATTTGGA (site TGGCCGGCTCC)	0.0416
TGGCCGGCATGGACCGGTTTTCCCGGTAATCCGTATTTGGA (site TGGCCGGCTGC)	0
TGGCCGGCATGGACCGGTTTTCCCGGTAATCCGTATTTGGA (site TGGCCGGCTTC)	0.0151
TGGCCGGCATGGACCGGTTTTCCCGGTAATCCGTATTTGGG (site TGGCCGGCTAC)	0.0282
TGGCCGGCATGGACCGGTTTTCCCGGTAATCCGTATTTGGG (site TGGCCGGCTCC)	0.059
TGGCCGGCATGGACCGGTTTTCCCGGTAATCCGTATTTGGG (site TGGCCGGCTGC)	0
TGGCCGGCATGGACCGGTTTTCCCGGTAATCCGTATTTGGG (site TGGCCGGCTTC)	0.00405
TGGCCGGCATGGACCGGTTTTCCCGGTAATCCGTATTTGTC (site TGGCCGGCTGA)	0.815
TGGCCGGCATGGACCGGTTTTCCCGGTAATCCGTATTTGTC (site TGGCCGGCTGC)	0
TGGCCGGCATGGACCGGTTTTCCCGGTAATCCGTATTTGTC (site TGGCCGGCTGG)	0
TGGCCGGCATGGACCGGTTTTCCCGGTAATCCGTATTTGTC (site TGGCCGGCTGT)	0
TGGCGGGCATGGACCGGTTTTCCCGGTAATCCGTATTTGGC (site TGGCAGGCTGC)	1.38
TGGCGGGCATGGACCGGTTTTCCCGGTAATCCGTATTTGGC (site TGGCCGGCTGC)	0.00581

Sequence	recombinant UMI read abundance (log10)
TGGCGGGCATGGACCGGTTTTCCCGGTAATCCGTATTTGGC (site TGGCGGGCTGC)	1.79
TGGCGGGCATGGACCGGTTTTCCCGGTAATCCGTATTTGGC (site TGGCTGGCTGC)	1.01
TGGCGGGCATGGACCGGTTTTCCCGGTAATCCGTATTTGTT (site TGGCGGGCTAA)	0.701
TGGCTCCCATGGACCGGTTTTCCCGGTAATCCGTATTTGGT (site TGGCTCCCTAC)	0.203
TGGCTGGCATGGACCGGTTTTCCCGGTAATCCGTATTTGGC (site TGGCAGGCTGC)	0
TGGCTGGCATGGACCGGTTTTCCCGGTAATCCGTATTTGGC (site TGGCCGGCTGC)	0
TGGCTGGCATGGACCGGTTTTCCCGGTAATCCGTATTTGGC (site TGGCGGGCTGC)	0
TGGCTGGCATGGACCGGTTTTCCCGGTAATCCGTATTTGGC (site TGGCTGGCTGC)	1.33
TGGGCAACATGGACCGGTTTTCCCGGTAATCCGTATTTGTG (site TGGGCAACTCA)	0.0056
TGGGCACCATGGACCGGTTTTCCCGGTAATCCGTATTTGCA (site AGGGCACCTTG)	0.00499
TGGGCACCATGGACCGGTTTTCCCGGTAATCCGTATTTGCA (site CGGGCACCTTG)	0.00478
TGGGCACCATGGACCGGTTTTCCCGGTAATCCGTATTTGCA (site GGGGCACCTTG)	0
TGGGCACCATGGACCGGTTTTCCCGGTAATCCGTATTTGCA (site TGGGCACCTTG)	0.00258
TGGGCGGCATGGACCGGTTTTCCCGGTAATCCGTATTTGAT (site TGGGCGGCTAT)	1.11
TGGTAAGCATGGACCGGTTTTCCCGGTAATCCGTATTTGGC (site TGGTAAGCTGC)	2.86
TGGTAATCATGGACCGGTTTTCCCGGTAATCCGTATTTGTG (site TGGTAATCTCA)	1.65
TGGTCACCATGGACCGGTTTTCCCGGTAATCCGTATTTGTC (site GTACTCACTCC)	0.00879
TGGTGACCATGGACCGGTTTTCCCGGTAATCCGTATTTGTC (site TGGTGACCTGA)	0
TGTAAACCATGGACCGGTTTTCCCGGTAATCCGTATTTGAC (site TGTAAACCTGT)	0

Sequence	recombinant UMI read abundance (log10)
TGTAAACCATGGACCGGTTTTCCCGGTAATCCGTATTTGAC (site TGTACACCTGT)	0
TGTAAACCATGGACCGGTTTTCCCGGTAATCCGTATTTGAC (site TGTAGACCTGT)	0
TGTAAACCATGGACCGGTTTTCCCGGTAATCCGTATTTGAC (site TGTATACCTGT)	0
TGTAAGACATGGACCGGTTTTCCCGGTAATCCGTATTTGGC (site TGTAAGACTGC)	0
TGTACAACATGGACCGGTTTTCCCGGTAATCCGTATTTGAG (site TGTACAACTCT)	0.0145
TGTACACCATGGACCGGTTTTCCCGGTAATCCGTATTTGAA (site TGTACACCTAT)	0.0146
TGTACACCATGGACCGGTTTTCCCGGTAATCCGTATTTGAA (site TGTACACCTCT)	0.00905
TGTACACCATGGACCGGTTTTCCCGGTAATCCGTATTTGAA (site TGTACACCTGT)	0
TGTACACCATGGACCGGTTTTCCCGGTAATCCGTATTTGAA (site TGTACACCTTT)	0.0198
TGTACACCATGGACCGGTTTTCCCGGTAATCCGTATTTGAT (site TGTACACCTAT)	0.00557
TGTACACCATGGACCGGTTTTCCCGGTAATCCGTATTTGAT (site TGTACACCTCT)	0
TGTACACCATGGACCGGTTTTCCCGGTAATCCGTATTTGAT (site TGTACACCTGT)	0
TGTACACCATGGACCGGTTTTCCCGGTAATCCGTATTTGAT (site TGTACACCTTT)	0.00971
TGTACCCCATGGACCGGTTTTCCCGGTAATCCGTATTTGAC (site TGTACACCTGT)	0
TGTACCCCATGGACCGGTTTTCCCGGTAATCCGTATTTGAC (site TGTACCCCTGT)	1.52
TGTACCCCATGGACCGGTTTTCCCGGTAATCCGTATTTGAC (site TGTACGCCTGT)	0
TGTACCCCATGGACCGGTTTTCCCGGTAATCCGTATTTGAC (site TGTACTCCTGT)	0.00417
TGTACTCCATGGACCGGTTTTCCCGGTAATCCGTATTTGAC (site TGTACACCTGT)	0
TGTACTCCATGGACCGGTTTTCCCGGTAATCCGTATTTGAC (site TGTACCCCTGT)	0.817
